According to publication PMC12635268, “Novel antimicrobial peptides and peptide-microbiome crosstalk in Appalachian salamander skin” (NPJ Biofilms and Microbiomes, 2025):
In brackets after ≈: the same amount, converted by molar mass. Like-named read-outs stand apart in the source and are kept apart here.

How the values were obtained:
[1] = test system: Batrachochytrium dendrobatidis Bd-GPL strain JEL404; conditions: slope of growth, positive = inhibition, negative = no inhibition
Procedure: Bd-peptide challenge assays were conducted with the crude peptides extracted from the salamander skin secretions and with the 20 synthesized peptides. We followed methods by Pereria et al.[49] to conduct assays with the crude peptides using Bd-GPL strain JEL404 at 1 × 10^6 zoospores/mL. Briefly, skin peptide samples were pooled together based on species-site-injection (Table 1). Skin peptides samples were serially diluted 2-fold in MilliQ (Ultrapure Type 1) water and assayed at a concentration of 2.35–75 μg/mL based on starting peptide concentration available. For synthesized peptides, we conducted assays from 15.6 to 500 μg/ml. In both assays, we quantified percent inhibition of each well using slope of growth[90] in which positive values indicate inhibition and negative values indicate no inhibition.

[2] = test system: HepG2 (ATCC HB-8065); test: HepG2 cytotoxicity, MTT assay; format: cell-based, human; conditions: at concentrations up to 5.25 μg/mL (5.25 to 0.15 µg/mL), 48 h
Procedure: For any inhibitory peptides, HepG2 (ATCC HB-8065) cytotoxicity was tested to determine half-maximal inhibitory concentration (IC50) of human cells. The procedure involved seeding 96-well plates with 2.5 × 10^4 cells per well in 170 µL of culture medium, followed by an overnight incubation at 37 °C in a 5% CO₂ atmosphere. Subsequently, cells were exposed to varying concentrations of the test peptides, ranging from 5.25 µg/mL to 0.15 µg/mL, and incubated for an additional 48 h. Cell viability was assessed using the MTT assay, as previously described. Absorbance measurements were obtained using a PerkinElmer EnSight plate reader. The IC50 values for each compound were calculated by fitting the data to a sigmoidal dose-response curve with variable slope using GraphPad Prism software. Each assay plate included three controls: (a) background control—wells without cells and without drug; (b) positive control—wells with cells and 10 µg/mL of a known toxic compound; and (c) DMSO control—wells with cells and 0.2% DMSO, the highest concentration of DMSO used in the assay, which is non-toxic to the cells.

[3] = test system: K. pneumoniae 4640; conditions: K. pneumoniae 4640
[4] = test system: A. baumannii 5075
[5] = test system: E. cloacae ATCC 13047; test: microbe, parasite or virus in culture; conditions: for Bacterial MIC: E. cloacae 13047; for MIC: Enterobacter cloacae
In short: (§1)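 Broth microdilution in cation-adjusted Mueller-Hinton broth, final inoculum 1 × 10⁵ CFU/mL, peptides 0.25 to 128 μg/mL in 0.02% TFA + 0.04% BSA. Duplicates incubated 20 h at 37 °C without agitation. MIC read visually per CLSI with image-analysis support.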

[6] = test system: E. cloacae ATCC 35549; test: microbe, parasite or virus in culture; conditions: for Bacterial MIC: E. cloacae 35549; for MIC: Enterobacter cloacae
In short: as §1

[7] = test system: E. coli ATCC 43888; test: microbe, parasite or virus in culture; conditions: for Bacterial MIC: E. coli 43888; for MIC: Escherichia coli
In short: as §1

[8] = test system: A. baumannii 5075; test: microbe, parasite or virus in culture
[9] = CAMHB, 1 × 10⁵ CFU/mL, 0.25 to 128 μg/mL, 37 °C 20 h, duplicate, read visually (CLSI)

CC[C@H](C)[C@H](NC(=O)[C@H](CCCCN)NC(=O)[C@H](CCC(=O)O)NC(=O)[C@H](CCCCN)NC(=O)[C@H](CO)NC(=O)[C@H](CCCCN)NC(=O)[C@H](CCCNC(=N)N)NC(=O)[C@H](Cc1ccccc1)NC(=O)[C@H](Cc1ccccc1)NC(=O)[C@H](CC(=O)O)NC(=O)CNC(=O)[C@H](CC(C)C)NC(=O)[C@@H](N)CC(C)C)C(=O)NCC(=O)N[C@@H](CCCCN)C(=O)N[C@@H](CCC(=O)O)C(=O)N[C@@H](Cc1ccccc1)C(=O)N[C@@H](CCCCN)C(=O)N[C@@H](CCCNC(=N)N)C(=O)N[C@H](C(=O)N[C@H](C(=O)N[C@@H](CCC(N)=O)C(=O)N[C@@H](CCCNC(=N)N)C(=O)N[C@H](C(=O)N[C@@H](CCCCN)C(=O)N[C@@H](CC(=O)O)C(=O)N[C@@H](Cc1ccccc1)C(=O)N[C@@H](CC(C)C)C(=O)N[C@@H](CCCNC(=N)N)C(=O)N[C@@H](CC(N)=O)C(=O)N[C@@H](CC(C)C)C(=O)N[C@H](C(=O)N1CCC[C@H]1C(=O)N[C@@H](CCCNC(=N)N)C(=O)N[C@H](C(=O)N[C@@H](CCC(=O)O)C(=O)N[C@@H](CO)C(=O)O)[C@@H](C)O)C(C)C)[C@@H](C)CC)C(C)C)[C@@H](C)CC [LL-37, reference compound]
Bd inhibition score (percent inhibition), mean ([1]; synthesized peptide 15.625 μg/mL): -44.2834% | Bd inhibition score (percent inhibition), mean ([1]; synthesized peptide 31.25 μg/mL): -68.3967% | Bd inhibition score (percent inhibition), mean ([1]; synthesized peptide 62.5 μg/mL): -39.8112% | Bd inhibition score (percent inhibition), mean ([1]; synthesized peptide 125 μg/mL): -55.6571% | Bd inhibition score (percent inhibition), mean ([1]; synthesized peptide 250 μg/mL): -81.8611% | Bd inhibition score (percent inhibition), mean ([1]; synthesized peptide 500 μg/mL): -318.384% | HepG2 cytotoxicity in words [2]: No HepG2 cytotox was observed | MIC [3, 9]: 64 µg/mL (≈ 14.2 µM) | Bacterial MIC ([3]; Week 1 (12/6/2023)): 64 µg/mL | Bacterial MIC ([3]; Week 2 (12/14/2023)): 64 µg/mL | MIC [4, 9]: 4 µg/mL (≈ 0.89 µM) | Bacterial MIC ([4]; Week 1 (12/6/2023)): 4 µg/mL | Bacterial MIC ([4]; Week 2 (12/14/2023)): 4 µg/mL

C[C@H]1COc2c(N3CCN(C)CC3)c(F)cc3c(=O)c(C(=O)O)cn1c23 [Levofloxacin, reference compound]
Bacterial MIC ([5]; Historical run 15NOV23): <= 0.250 µg/mL | Bacterial MIC ([5]; Historical run 19APRIL23): <= 0.250 µg/mL | Bacterial MIC ([5]; Historical run 22NOV23): <= 0.250 µg/mL | Bacterial MIC ([5]; Week 2 (12/14/2023)): <= 0.250 µg/mL | MIC ([5]; ATCC13047, 20 h): 0.25 µg/mL (≈ 0.692 µM) | MIC ([5]; ATCC13047, read-out: Bacterial MIC): ≤ 0.25 µg/mL | Bacterial MIC ([6]; Historical run 15NOV23): <= 0.250 µg/mL | Bacterial MIC ([6]; Historical run 19APRIL23): <= 0.250 µg/mL | Bacterial MIC ([6]; Historical run 22NOV23): <= 0.250 µg/mL | Bacterial MIC ([6]; Week 2 (12/14/2023)): <= 0.250 µg/mL | MIC ([6]; ATCC35549, 20 h): 0.25 µg/mL (≈ 0.692 µM) | MIC ([6]; ATCC35549, read-out: Bacterial MIC): ≤ 0.25 µg/mL | Bacterial MIC ([7]; Historical run 15NOV23): <= 0.250 µg/mL | Bacterial MIC ([7]; Historical run 19APRIL23): <= 0.250 µg/mL | Bacterial MIC ([7]; Historical run 22NOV23): <= 0.250 µg/mL | Bacterial MIC ([7]; Week 2 (12/14/2023)): <= 0.250 µg/mL | MIC ([7]; ATCC43888, 20 h): 0.25 µg/mL (≈ 0.692 µM) | MIC ([7]; ATCC43888, read-out: Bacterial MIC): ≤ 0.25 µg/mL | MIC ([8]; Acinetobacter baumannii, 5075, 20 h, A. baumannii 5075, CAMHB, 1 × 10⁵ CFU/mL, 0.25 to 128 μg/mL, 37 °C 20 h, duplicate, read visually (CLSI)): 4 µg/mL (≈ 11.1 µM) | MIC ([8]; Acinetobacter baumannii, 5075, read-out: Bacterial MIC, A. baumannii 5075, Historical run 15NOV23): 8 µg/mL (≈ 22.1 µM) | MIC ([8]; Acinetobacter baumannii, 5075, read-out: Bacterial MIC, A. baumannii 5075, Historical run 19APRIL23): 4 µg/mL (≈ 11.1 µM) | MIC ([8]; Acinetobacter baumannii, 5075, read-out: Bacterial MIC, A. baumannii 5075, Historical run 22NOV23): 4 µg/mL (≈ 11.1 µM) | MIC ([8]; Acinetobacter baumannii, 5075, read-out: Bacterial MIC, A. baumannii 5075, Week 1 (12/6/2023)): 4 µg/mL (≈ 11.1 µM) | MIC ([8]; Acinetobacter baumannii, 5075, read-out: Bacterial MIC, A. baumannii 5075, Week 2 (12/14/2023)): 4 µg/mL (≈ 11.1 µM)
